{"source": "patent US20070122376A1", "about": "“Pheromones and method of preventing infestation of Contarinia nasturtii” (priority 2004, published 2007)", "key": {"male antenna": {"system": "male antenna", "experiment": "GC-EAD electrophysiological recording of male antennal response", "design": "species or system Contarinia nasturtii", "conditions": "natural peaks of ovipositor extract, identified by mass spectra and coelution with synthetics", "experimental": "The pots with infested soil were put in glass cages (28×28×33 cm) and kept at L/D 18/6, 25° C., and RH 70% for the adults to emerge. After emergence, males and females were transferred to separate cages. Females were kept under the conditions mentioned and males were kept at L/D 18/6, 15° C., and RH 75%. […] The ovipositors were collected in a vial kept in liquid nitrogen and then extracted for 1-2 min redistilled hexane (LabScan). Extracts were kept in sealed glass capillaries at −18° C. until use.\nMale antennal response to ovipositor extracts was analyzed by gas chromatography 25 with electroantennographic detection (GC-EAD). The GC used was a Hewlett Packard 6890 GC with flame ionization detection and an Innowax column (30m×0.25 mm ID, Hewlett Packard, USA). The column temperature was programmed from 80° C. (2 min hold) to 230° C. at 10° C./min. The antennal recordings were made using a Plexiglass holder with two wells connected to an amplifier by gold wire electrodes (JoAC, Lund, Sweden; Zhang et al., 1997; Hillbur, 2001). Male insects were mounted in the holder as described by Hillbur et al. (2000). […] Antennal signals were amplified (JoAC) before they were recorded and analyzed with ElectroAntennoGraphy software (Syntech, Hilversum, The Netherlands)."}, "male C. nasturtii": {"system": "male C. nasturtii", "experiment": "Wind tunnel assay of male response (landing on odour source)", "type": "in vivo, Contarinia nasturtii", "conditions": "for landings on the odor source, response to single component: each component tested individually at the concentrations indicated (FIG. 4), N>=20; for males flying towards the odour source: single components tested individually", "experimental": "Calling females were collected from the laboratory culture and submersed in batches in hexane (p.a. grade) for 15 min at room temperature. The supernatant was then decanted and concentrated to the highest concentration tested by blowing off the hexane with N2.\nWind tunnel experiments were performed in the 2nd to 4th hour of the photophase at 22° C. and 73% r.h. in a wind tunnel described in detail by Rauscher et al. (1984). Compounds were diluted in hexane (p.a. grade). For the bioassays, 10 p 1 of the stimulus to be tested was applied onto a piece of fitter paper (Chromatographiepapier “Schleicher & Schuell AG” Auer-Bittmann Soulié AG, Zurich, Switzerland, 69.2 gr/m2, 1 cm^2)which was then placed in the air stream at least 20 sec before the first male was tested. For each stimulus, a series of five males were tested individually, requiring a total of 5-10 min for each series. For each series, a new piece of filter paper was loaded with the respective stimulus.\nMales were kept individually in glass tubes (10 cm, 15 mm i.d.) closed at one end with a piece of screen (mesh size 1×1 mm) until they were tested. With these tubes they were transferred into the wind tunnel, where the tube was placed on a pole in horizontal position with the opening upwind, at a distance of 130 cm downwind from the odor source. Time recording was then started and the following steps recorded. Activation by wing-fanning, take off, directed flight towards the odor source, flights closer than 30 cm from the source (“close in”), landing on the source or elsewhere. The test was stopped when no activity or take off was registered during […] or when the insect landed elsewhere.\nOf the recorded parameters only the number of successful landings on the source were analyzed"}}}
{"smiles": "CC[C@@H](CCCCCC[C@H](C)OC(C)=O)OC(C)=O", "note": "[(2S,9S)-diacetoxyundecane, (2S,9S)-Diacetoxyundecane]", "values": [{"measurement": "male antennal response (GC-EAD)", "setting": "male antenna", "result": "EAD-active"}, {"measurement": "landings on the odor source, response to single component", "setting": "male C. nasturtii", "result": 0}, {"measurement": "males flying towards the odour source", "setting": "male C. nasturtii", "result": "no males flew towards the odour source"}]}
{"smiles": "CCCCCCCCC[C@H](C)OC(C)=O", "note": "[(2S)-acetoxyundecane, (2S)-Acetoxyundecane]", "values": [{"measurement": "most attractive concentration of (2S)-acetoxyundecane in blend", "setting": "male C. nasturtii; blends with 1.5 ng/dispenser (2S,9S)- and 3.0 ng/dispenser (2S,10S)-diacetoxyundecane", "result": 0.03, "unit": "ng/dispenser"}, {"measurement": "effect of higher concentrations of (2S)-acetoxyundecane on proportion of male landing", "setting": "male C. nasturtii; concentrations higher than 0.03 ng/dispenser in blend with 1.5 ng 2S,9S and 3.0 ng 2S,10S", "result": "inhibitory"}, {"measurement": "landings on the odor source, response to single component", "setting": "male C. nasturtii", "result": 0}, {"measurement": "males flying towards the odour source", "setting": "male C. nasturtii", "result": "no males flew towards the odour source"}]}
{"smiles": "CC(=O)O[C@@H](C)CCCCCCC[C@H](C)OC(C)=O", "note": "[(2S,10S)-diacetoxyundecane, (2S,10S)-Diacetoxyundecane]", "values": [{"measurement": "male antennal response (GC-EAD)", "setting": "male antenna", "result": "EAD-active"}, {"measurement": "landings on the odor source, response to single component", "setting": "male C. nasturtii", "result": 0}, {"measurement": "males flying towards the odour source", "setting": "male C. nasturtii", "result": "no males flew towards the odour source"}]}
